Test results as given in ChEMBL document CHEMBL2095176, “GSK Tuberculosis Screening Data”.
Converted amounts (≈) assume the structure as drawn.

These compounds were tested on Mycobacterium tuberculosis variant bovis BCG (assay: microbe, parasite or virus in culture).
Assay type: functional

| Structure (SMILES) | MIC90 [µM] |
| --- | --- |
| COc1ccc2sc(Nc3nc(C)n(-c4ccccc4)c(=O)n3)nc2c1 | 9.5 (≈ 3.47 µg/mL) |
| Cc1ccc2nc(C(F)(F)F)c(C(=O)NCc3cccc(OC(C)C)c3)n2c1 | 1.9 (≈ 0.744 µg/mL) |
| Nc1nc2cc(-c3cncc(Oc4ccc(F)cc4)c3)ccc2[nH]1.O=C(O)C(F)(F)F.O=C(O)C(F)(F)F | 6.2 |
| COc1ccc(-c2cc(=O)c3cc(OCC(=O)OC(C)C)ccc3o2)cc1 | 6.2 (≈ 2.28 µg/mL) |
| O=C(/C=C/c1ccc(OC(F)(F)F)cc1)NC1CCN(c2ncccc2C(F)(F)F)CC1 | 3.8 (≈ 1.75 µg/mL) |
| CCCCOc1ccc(C(=O)Nc2nnc(-c3ccccc3)o2)cc1 | 3.1 (≈ 1.05 µg/mL) |
| Fc1ccc(F)c(-c2noc(CC3CCN(Cc4ccsc4)C3)n2)c1 (centres undefined) | 3.5 (≈ 1.26 µg/mL) |
| CCCn1nc(C(=O)N2CCN(c3ccccc3F)CC2)c2ccccc2c1=O | 8.7 (≈ 3.43 µg/mL) |
| O=C(c1cccc(-c2noc(-c3ccccc3)n2)c1)N1CCCCC1CCO (centres undefined) | 0.9 (≈ 0.34 µg/mL) |
| COc1ccc(S(=O)(=O)Nc2ccccc2Nc2ccc(C)cc2)cc1 | 2.8 (≈ 1.03 µg/mL) |
| O=c1cc(N2CCCNCC2)c(Cl)nn1CCCNS(=O)(=O)c1ccc(-c2ccccc2)cc1 | 4.6 (≈ 2.31 µg/mL) |
| c1ccc(-n2ncc3c(N4CCCNCC4)nc(C4CC4)nc32)cc1 | 4.1 (≈ 1.37 µg/mL) |
| COc1ccc(S(=O)(=O)N(C)C)cc1C(=O)N[C@H]1CCN2CC(c3ccccc3)C[C@H]2C1 (some centres undefined) | 0.4 (≈ 0.183 µg/mL) |
| Oc1ccc(Nc2ccccc2Nc2ccccc2)cc1Cl | 7.7 (≈ 2.39 µg/mL) |
| Clc1ccc(OCc2noc(CC3CCN(CCOCc4ccccc4)C3)n2)cc1 (centres undefined) | 6 (≈ 2.57 µg/mL) |
| Cc1cc(Oc2cccc(CN3CCCC3)c2)nc(NCCc2ccccc2)n1 | 8.9 (≈ 3.46 µg/mL) |
| Cc1ccc(-n2ncc3c(SCC(=O)NNC(=O)c4ccco4)ncnc32)cc1 | 3.6 (≈ 1.47 µg/mL) |
| CC(=O)N(C)c1ccc(Oc2ccnc(NCc3c(C)cccc3C)n2)cc1 | 9.5 (≈ 3.58 µg/mL) |
| Cc1cc(C)c(C)c(OCCCCNCc2ccco2)c1 | 7.8 (≈ 2.24 µg/mL) |
| NC(=O)c1cnc2ccc(S(=O)(=O)c3ccccc3)cc2c1Nc1ccc(O)cc1 | 2.9 (≈ 1.22 µg/mL) |
| O=C(COc1ccc(Br)cc1)NNC(=O)c1cccs1 | 2.4 (≈ 0.853 µg/mL) |
| Cc1cc2nc(C)n(CCCOc3ccccc3)c2cc1C | 6.1 (≈ 1.8 µg/mL) |
| Clc1ccc(Nc2nc(-c3ccccn3)cs2)nc1 | 1.2 (≈ 0.347 µg/mL) |
| N#Cc1nc(-c2ccccc2F)oc1NCCc1ccccc1 | 7.9 (≈ 2.43 µg/mL) |
| O=C(Nc1nc(-c2ccccn2)cc2ccccc12)c1cccc(Cl)c1 | 3 (≈ 1.08 µg/mL) |

| Structure (SMILES) | MIC90 [µM] |
| --- | --- |
| Cc1cc(CN2CCC3(CC2)OCCc2sccc23)oc1C | 2.1 (≈ 0.667 µg/mL) |
| COc1ccc(CC(=O)Nc2c(-c3cccs3)nc3cc(C)ccn23)cc1 | 9.2 (≈ 3.47 µg/mL) |
| CCOc1ccc(NC(=O)N(C2CCCCC2)C(C)c2cccnc2)cc1 (centres undefined) | 7.2 (≈ 2.65 µg/mL) |
| COC(=O)COc1ccc(CCn2nnc(-c3ccc(C(F)(F)F)cc3)n2)cc1 | 7.6 (≈ 3.09 µg/mL) |
| CN(C)C1CCN(C(=O)c2csc(-c3cccc(Cl)c3Cl)n2)C1 (centres undefined) | 8.5 (≈ 3.15 µg/mL) |
| Cc1ccc(-c2ccc(SCC(=O)Nc3nonc3C)nn2)cc1 | 6.8 (≈ 2.32 µg/mL) |
| COc1ccc(-c2nnc(NC(=O)c3ccc(Br)s3)o2)cc1 | 7.6 (≈ 2.89 µg/mL) |
| Cc1ccc(NC(=O)C2COc3ccccc3C2)cc1Cl (centres undefined) | 8.5 (≈ 2.57 µg/mL) |
| COc1ccc(S(=O)(=O)CC(=O)N(CCN(C)C)c2nc3c(C)ccc(Cl)c3s2)cc1 | 7 (≈ 3.37 µg/mL) |
| Br.Cc1cc(C)cc(OCCCON2C(=N)N=C(N)NC2(C)C)c1 | 7 |
| O=C(COc1ccc(Br)cc1Cl)Nc1nc(-c2ccccn2)cs1 | 4.6 (≈ 1.95 µg/mL) |
| COc1cc(/C=C/C(=O)O)ccc1OCCN1CCCCCC1 | 7 (≈ 2.24 µg/mL) |
| O=C(CCSc1ccc(Cl)cc1)Nc1nc(-c2ccccn2)cs1 | 3.9 (≈ 1.47 µg/mL) |
| CC(C)OC(=O)COc1ccc(-c2cnc(N(C)CCc3ccncc3)nc2)cc1 | 8.5 (≈ 3.46 µg/mL) |
| COc1cc2c(cc1OC)C(c1ccccc1)N(C(=O)c1nn(C)c(=O)c3ccccc13)CC2 (centres undefined) | 6.3 (≈ 2.87 µg/mL) |
| CC(C)Oc1ccc(C(=O)Nc2nc(-c3ccccn3)cs2)cc1 | 4.1 (≈ 1.39 µg/mL) |
| O=C(NC1CCN(Cc2ccccc2)C1)c1cccc(-c2ccc(Cl)cc2)c1 (centres undefined) | 10 (≈ 3.91 µg/mL) |
| Cc1ccc2nc(C(F)(F)F)c(C(=O)NCc3ccc4c(c3)OCO4)n2c1 | 1.8 (≈ 0.679 µg/mL) |
| CCOC(=O)c1c(-c2ccccc2)oc2ccc(O)c(CN3CCCC3)c12 | 3.9 (≈ 1.43 µg/mL) |
| NC(=O)C(N)Cc1c[nH]c2ccc(F)cc12 (centres undefined) | 2.3 (≈ 0.509 µg/mL) |
| O=C(c1ccc(-c2cccc(OCCN3CCC(c4ccc(F)cc4)CC3)c2)cc1)N1CCCC1 | 4.4 (≈ 2.08 µg/mL) |
| CCc1ccc(C2CC(C(F)(F)F)n3ncc(C(=O)NCc4ccc5c(c4)OCO5)c3N2)cc1 (centres undefined) | 4.8 (≈ 2.27 µg/mL) |
| O=C(Nc1nc(-c2ccccn2)cs1)c1ccc(-c2ccc(F)cc2)s1 | 3.6 (≈ 1.37 µg/mL) |
| CCc1c(C)nc(-n2nc(C)cc2NC(=O)c2ccc(OC)cc2OC)[nH]c1=O | 1.2 (≈ 0.477 µg/mL) |
| Cc1ccc(C(=O)Nc2nc(-c3ccccn3)cs2)s1 | 3.7 (≈ 1.12 µg/mL) |

| Structure (SMILES) | MIC90 [µM] |
| --- | --- |
| Cc1ccc(-c2nnc(NC(=O)c3cccc(C(F)(F)F)c3)o2)c(C)c1 | 4.4 (≈ 1.59 µg/mL) |
| O=C(NNC(=O)c1cc2cc([N+](=O)[O-])ccc2s1)c1cccs1 | 9.2 (≈ 3.2 µg/mL) |
| Cc1ccc2c(OC3CCNCC3)cccc2n1 | 5.9 (≈ 1.43 µg/mL) |
| c1ccc(-c2nnc(Sc3ccnc(N4CCN(c5ccncc5)CC4)n3)n2CCCN2CCOCC2)nc1 | 4.6 (≈ 2.51 µg/mL) |
| c1ncn(-c2ccc(COc3ccc(-n4cncn4)cc3)cc2)n1 | 6.8 (≈ 2.16 µg/mL) |
| CCSc1cccc(C(=O)Nc2nnc(-c3ccc(C)cc3C)o2)c1 | 5.2 (≈ 1.84 µg/mL) |
| Cc1csc2nc(-c3ccccn3)nc(Nc3ccncn3)c12.O=C(O)C(F)(F)F | 1.3 |
| CCN(CC)CCCn1c(Sc2ccnc(N3CCN(c4ccncc4)CC3)n2)nnc1-c1ccccc1 | 2.4 (≈ 1.27 µg/mL) |
| CN(C)CCCSc1nc(N2CCCC2)c2c(c1C#N)CCCC2 | 8.5 (≈ 2.93 µg/mL) |
| Cc1cnc(CNCc2ccc(-c3ccc(C(=O)NCCc4ccccc4)c(F)c3)cc2)cn1 | 5.5 (≈ 2.5 µg/mL) |
| O=C(CSc1ccc(Cl)cc1)NNC(=O)c1ccncc1 | 8.1 (≈ 2.61 µg/mL) |
| COc1ccc(-c2ccc(Nc3cccc(S(=O)(=O)CCN(C)Cc4ccccc4)c3)nc2)cn1 | 7.4 (≈ 3.62 µg/mL) |
| O=C(C=Cc1ccco1)N1CCN(Cc2ccc3c(c2)OCO3)CC1 | 7 (≈ 2.38 µg/mL) |
| CC1CCN(Cc2c(O)ccc3oc(-c4ccco4)cc(=O)c23)CC1 | 2.6 (≈ 0.882 µg/mL) |
| Cc1ccc(N2CCN(CCOc3cccc(-c4ccc(C(=O)N5CCCC5)cc4)c3)CC2)cc1C | 2.4 (≈ 1.16 µg/mL) |
| Oc1nc(-c2ccccn2)nc(C(F)(F)F)c1Br | 9.6 (≈ 3.07 µg/mL) |
| COc1ccc2cc(C(=O)Nc3ccc(C4CCN(C)CC4)cc3)sc2c1 | 2.9 (≈ 1.1 µg/mL) |
| O=C(Nc1cccc(C(=O)N2CCCCC2c2nc3ccccc3s2)c1)c1cccs1 (centres undefined) | 0.1 (≈ 0.0448 µg/mL) |
| Cc1cc(NCCc2ccccc2)nc(NC(=N)Nc2ccc(Cl)cc2)n1 | 2 (≈ 0.762 µg/mL) |
| COc1cc(OC)c(C(=O)Nc2cccc3c2CCN(C)C3C)cc1Br (centres undefined) | 5.5 (≈ 2.31 µg/mL) |
| O=C(Nc1nnc(-c2ccc(Cl)cc2)o1)c1ccc(F)cc1 | 3.9 (≈ 1.24 µg/mL) |
| COCc1nc(N2CCNCC2)c2c(C)nn(-c3cccc(Cl)c3)c2n1 | 1.9 (≈ 0.708 µg/mL) |
| O=C(c1[nH]nc2c1CCCC2)N1CCN(Cc2ccc3c(c2)OCO3)CC1 | 3.9 (≈ 1.44 µg/mL) |
| Cc1ccc(CCNC(=O)c2c(-c3ccc(F)cc3F)noc2C)cc1 | 9.8 (≈ 3.49 µg/mL) |
| CC(C)(C)C(=O)CC1(O)Oc2ccccc2N=C1C=C(O)C(C)(C)C (centres undefined) | 5.3 (≈ 1.83 µg/mL) |

| Structure (SMILES) | MIC90 [µM] |
| --- | --- |
| CC(C)Oc1ccc(NCC(=O)Nc2ccc(F)cc2)cc1 | 6.7 (≈ 2.03 µg/mL) |
| O=C(C=Cc1cccs1)Nc1nc(-c2ccccn2)cs1 | 3.3 (≈ 1.03 µg/mL) |
| O=C(CNc1ccccc1Nc1ccccc1)N1CCCC1 | 8.2 (≈ 2.42 µg/mL) |
| CCc1ccc(C2CC(C(F)(F)F)n3ncc(C(=O)NCc4cccs4)c3N2)cc1 (centres undefined) | 8.8 (≈ 3.82 µg/mL) |
| Cc1cc(O)nc(-n2nc(C)cc2NC(=O)c2cc3ccccc3o2)n1 | 6.2 (≈ 2.17 µg/mL) |
| Cc1cnc(N2CCN[C@@H](Cc3ccccc3)C2)nc1Oc1ccc(-n2ccnc2)cc1.O=C(O)C(F)(F)F | 8.1 |
| O=C(Nc1nc(-c2ccccn2)cs1)c1ccc(Br)o1 | 3.5 (≈ 1.23 µg/mL) |
| CCn1c(NC(=O)Cc2ccc(Cl)cc2)nc2ccccc21 | 9.8 (≈ 3.08 µg/mL) |
| Cc1ccc2nc(N(CCCn3ccnc3)C(=O)C=Cc3cccs3)sc2c1 | 8.2 (≈ 3.35 µg/mL) |
| CCOc1cc(OC)c(C(=O)Nc2cccc3c2CCNC3C)cc1Cl (centres undefined) | 3.7 (≈ 1.39 µg/mL) |
| Cc1cc(CN2CCCN(c3ncc(-c4ccsc4)c4nc(C(F)(F)F)ccc34)CC2)no1 | 9.8 (≈ 4.64 µg/mL) |
| COc1cccc(Nc2cc(C(C)(C)C)nc(-c3ccccn3)n2)c1 | 3.6 (≈ 1.2 µg/mL) |
| COc1ccc(O)c(C(=O)c2cnn(C(=O)c3cccs3)c2)c1 | 1.8 (≈ 0.591 µg/mL) |
| CS(=O)(=O)Nc1cccc(-c2cnc3[nH]cc(-c4cccc(CCN)c4)c3c2)c1 | 9.8 (≈ 3.98 µg/mL) |
| Cc1ccc2nc(C)c(C(=O)NCc3ccco3)n2c1 | 1 (≈ 0.269 µg/mL) |
| O=C(Nc1nnc(-c2ccccc2)o1)c1ccc(Cl)s1 | 9.8 (≈ 3 µg/mL) |
| Cc1nn(CC(C)C)c2sc(C(=O)Nc3nc(-c4ccccn4)cs3)cc12 | 3.7 (≈ 1.47 µg/mL) |
| O=C(COc1ccc2c(c1)CCC2)NNC(=O)c1cccs1 | 4.2 (≈ 1.33 µg/mL) |
| CSc1ccc(-c2nnc(NC(=O)c3ccc(Cl)s3)o2)cc1 | 6.5 (≈ 2.29 µg/mL) |
| OC1(c2ccccc2)Oc2ccccc2N=C1c1ccccc1 (centres undefined) | 4.8 (≈ 1.45 µg/mL) |
| CC(=CC(=O)NC12CC3CC(CC(C3)C1)C2)c1cccc(Cl)c1 | 7.8 (≈ 2.57 µg/mL) |
| COc1ccccc1C(=O)N(Cc1cccnc1)Cc1cc2c(C)cc(C)cc2nc1Cl | 5.9 (≈ 2.63 µg/mL) |
| Fc1ccc(-c2cccc3ccc(N4CCNCC4)nc23)cc1 | 8.5 (≈ 2.61 µg/mL) |
| COCCN1CCN(c2ccnc(-n3cnc4cc(C)c(C)cc43)n2)CC1 | 0.8 (≈ 0.293 µg/mL) |
